“And” between values parts separate entries of the source, which are not always exact repeats. Equal entries are not always repeated. Marks after values point to notes of the source that are not given here.
What was measured:
[1] = tested on: allergic contact dermatitis response in mice; assay: Allergic contact dermatitis (TDI) model in mice, mouse ear swelling test; type: in vivo
Experimental: The anti-inflammatory and anti-allergic effects of compounds 1a and 1c were assessed in a mouse model of allergic contact dermatitis, a response driven primarily by T helper type 2 (Th2) cells. […] In this model, an allergic dermatitis response is obtained by sensitizing mice to TDI and subsequently challenging them with antigen by topical administration onto the ears. A quantitative assessment of anti-inflammatory and anti-allergic effects of topically or orally administered test compounds is possible by measuring the resulting ear swelling. The advantages of the allergic contact dermatitis model (Zöllner et al., Bioessays 26:693-6 (2004)) are reproducibility and reliability (>90% of BALB/c mice respond to sensitization), a short induction protocol, quantitative assessment by measuring ear thickness, atopic dermatitis-like skin lesions can be induced, and clinically relevant pharmaceuticals, such as corticosteroids, calcineurin-inhibitors and PDE4-inhibitors, are effective in this model.
Female BALB/c-mice were obtained from Charles River (Sulzfeld, Germany) at age 8 weeks. All animals were housed in groups of eight per cage at 22° C. with a 12 h light/dark-cycle, Water and a standard diet (Altromin, Lage/Lippe, Germany) were available ad libitum. All animals were acclimatized for one week before experimental procedures were commenced.
Experimental procedures for BALB/c mice housing, TDI sensitization and challenge, and measurement of ear thickness were performed as previously described (Baumer et al., J Pharm Pharmacol, 55:1107-1114 (2003)) with the following modifications. For active sensitization, 100 μL of 5% (w/v) TDI was administered to the shaved and stripped abdominal epidermis on day one, and for the next three consecutive days, 50 μL of 5% (My) TDI was applied. The allergic reaction was boosted 21 days later by application of 50 μL of 0.5% (w/v) TDI. For the examination of test compound effects, the left ears were used for the TDI challenge (20 μL of 0.5% in acetone) and ear thickness measured 3 h before and 24 h after challenge.
Group size was n=7 mice unless otherwise stated. Test compounds were freshly prepared before administration.
Administration time: to determine optimal time for administration treatment groups were treated orally by gavage with 100 mg/kg of compound 1a or 1c (suspended in 0.5% tylose, 10 mL/kg) 1, 4 or 16 h before topical TDI challenge. One group was treated with 100 mg/kg miltefosine orally, 16 h before challenge (based on available data for optimal administration time for miltefosine) and vehicle treated mice received tylose (10 mL/kg) orally, 4 h before challenge.
Dose-response: two groups of mice were treated orally with compound 1a at 25 mg/kg or 100 mg/kg suspended in 0.5% tylose, 4 h before topical TDI challenge. Vehicle treated mice received 0.5% tylose orally 4 h before challenge. As a positive control, dexamethasone was administered in saline solution at 1 mg/kg or 3 mg/kg, 2 h and 30 min before challenge and 1 h after challenge. The dose and dosing scheme for dexamethasone was based on previous experience showing a maximal effect in this model.
Compound 1a was administered to two groups of mice topically in 20 μl of a 2% or 6% solution in propyleneglycol. The suspension was heated to 60° C. and mixed using a thermomixer (Eppendorf) until it became clear. The solution was applied, 2 h before topical TDI challenge by administration of 10 μl onto each of the inner and outer surfaces of the left ears. A vehicle group (17=5) was treated with propyleneglycol. As a positive control, diflorasone, diacetate was administered at 0.01% (low dose) and 0.05% (high dose) in 20 μl acetone, 2 h before challenge. A basal control group was left untreated.
Mean and standard error of the mean (SEM) were calculated from individual ear edema values. […]

RBL-2H3 cells = assay: Maximum tolerated concentration (cytotoxicity by lactate dehydrogenase release); type: cell-based, Rat; conditions: for MTC (maximum tolerated concentration): highest concentration not causing cytotoxicity (LDH release), RBL-2H3 cells; for SI (safety index): ratio between MTC and IC50
From the text: The safety index (SI) of a test compound is the ratio between the maximum tolerated concentration and the IC50 and is used as a measure of the relative safety of the test compound.

[2] = administration time study, 100 mg/kg oral, 1 h before TDI challenge
[3] = administration time study, 100 mg/kg oral, 4 h before TDI challenge
[4] = administration time study, 100 mg/kg oral, 16 h before TDI challenge

Compound	Inhibition of mouse ear swelling [1, 2]	Inhibition of mouse ear swelling [1, 3]	Inhibition of mouse ear swelling [1, 4]	inhibition relative to the highest dose of dexamethasone ([1]; dose-response study, oral, versus dexamethasone 3 mg/kg) [%]	Inhibition of mouse ear swelling ([1]; dose-response study, 25 mg/kg oral, 4 h before TDI challenge)	Inhibition of mouse ear swelling ([1]; dose-response study, 100 mg/kg oral, 4 h before TDI challenge)	toxicity at the doses used ([1]; oral 25 or 100 mg/kg)	reduction of ear swelling compared to vehicle control ([1]; topical solution at 2% or 6%)	Inhibition of mouse ear swelling ([1]; topical, 20 μl of 2% solution in propyleneglycol, 2 h before TDI challenge)	Inhibition of mouse ear swelling ([1]; topical, 20 μl of 6% solution in propyleneglycol, 2 h before TDI challenge)	MTC (maximum tolerated concentration) (RBL-2H3 cells) [µM]	SI (safety index) (RBL-2H3 cells)
CCCCCCCCCCCCCCCCN(C)CC(O)CS(=O)(=O)O (centres unmarked) [Compound 1a, 2-hydroxy-3-(N-methylhexadecylammonio)propane-sulfonate]	72.6*** %	73.4*** %	29.0%	52	45% and 44.9*** %	45% and 44.4*** %	no toxicity	up to 68%	67.9** %	63.1** %	75	10.9
CCCCCCCCCCCCN(C)CC(O)CS(=O)(=O)O (centres unmarked) [Compound 1c, 2-hydroxy-3-(N-methyldodecylammonio)propanesulfonate]	58.1** %	68.5*** %	42.7^§ %								200	48.8
